Literature values, collected in US20130331575A1, “Method for resolution of 4-((1R,3S)-6-chloro-3-phenyl-indan-1-yl)-1,2,2-trimethyl-piperazine and 1-((1R,3S)-6-chloro-3-phenyl-indan-1-yl)-3,3-dimethyl-piperazine” (priority 2011, published 2013).

Legend:
D1 = D1 (Homo sapiens, UniProt P21728); settings: in vitro
5-HT2 = 5-HT2 (Homo sapiens, UniProt P28223)
D2 = D2 (Homo sapiens, UniProt P14416); settings: in vitro
D1 and D2 = settings: in vivo

Sequence of D1 (P21728 whole entry): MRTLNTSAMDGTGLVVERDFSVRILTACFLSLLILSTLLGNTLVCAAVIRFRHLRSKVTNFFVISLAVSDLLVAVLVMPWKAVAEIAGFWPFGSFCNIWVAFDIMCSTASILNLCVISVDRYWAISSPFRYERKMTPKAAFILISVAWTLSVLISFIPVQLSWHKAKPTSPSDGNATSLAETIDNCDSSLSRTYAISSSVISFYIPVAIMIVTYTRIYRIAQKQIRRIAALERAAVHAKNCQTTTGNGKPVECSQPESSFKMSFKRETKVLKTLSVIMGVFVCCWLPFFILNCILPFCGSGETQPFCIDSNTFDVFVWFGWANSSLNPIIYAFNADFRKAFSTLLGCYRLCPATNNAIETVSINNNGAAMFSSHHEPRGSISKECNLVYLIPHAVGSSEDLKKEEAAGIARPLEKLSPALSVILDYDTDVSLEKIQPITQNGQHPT
Sequence of 5-HT2 (P28223 whole entry, species assumed): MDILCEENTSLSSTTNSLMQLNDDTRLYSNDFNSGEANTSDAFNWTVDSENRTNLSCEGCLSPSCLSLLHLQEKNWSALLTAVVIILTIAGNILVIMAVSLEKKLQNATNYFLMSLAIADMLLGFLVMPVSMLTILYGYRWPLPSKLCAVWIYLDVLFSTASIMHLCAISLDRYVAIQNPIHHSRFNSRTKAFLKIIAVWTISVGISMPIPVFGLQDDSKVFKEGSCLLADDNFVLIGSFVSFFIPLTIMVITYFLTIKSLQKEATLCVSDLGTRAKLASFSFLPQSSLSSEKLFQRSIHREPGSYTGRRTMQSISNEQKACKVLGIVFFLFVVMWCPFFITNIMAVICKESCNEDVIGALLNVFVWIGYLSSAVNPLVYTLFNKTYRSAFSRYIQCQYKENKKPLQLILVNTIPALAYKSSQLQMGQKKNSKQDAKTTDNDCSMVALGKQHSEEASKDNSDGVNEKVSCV
Sequence of D2 (P14416 whole entry): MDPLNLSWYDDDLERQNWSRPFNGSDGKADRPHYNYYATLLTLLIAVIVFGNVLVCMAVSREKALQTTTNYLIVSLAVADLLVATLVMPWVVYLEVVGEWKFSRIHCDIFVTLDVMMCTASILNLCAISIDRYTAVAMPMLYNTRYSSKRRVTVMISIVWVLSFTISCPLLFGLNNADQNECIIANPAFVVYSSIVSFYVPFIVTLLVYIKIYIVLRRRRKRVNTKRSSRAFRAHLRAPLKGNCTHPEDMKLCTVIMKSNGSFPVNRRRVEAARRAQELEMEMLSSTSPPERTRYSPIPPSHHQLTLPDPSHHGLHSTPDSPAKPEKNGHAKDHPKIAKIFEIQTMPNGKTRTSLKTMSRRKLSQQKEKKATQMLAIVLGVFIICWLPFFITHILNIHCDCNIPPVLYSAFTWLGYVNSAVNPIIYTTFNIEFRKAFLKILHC

Structure (SMILES): CN1CCN([C@@H]2C[C@@H](c3ccccc3)c3ccc(Cl)cc32)CC1(C)C [Compound (I), 4-((1R,3S)-6-chloro-3-phenyl-indan-1-yl)-1,2,2-trimethyl-piperazine]
- D1 antagonist potency (D1): potent
- D1 versus D2 selectivity (D1): some D1 selectivity
- 5-HT2 antagonist potency (5-HT2): potent 5-HT2 antagonist
- affinity for α1 adrenoceptors (α1 adrenoceptors): high affinity
- D2 antagonist potency (D2): potent
- relative potency as D1 and D2 antagonist (D1 and D2): equipotent as D1 and D2 antagonist
